Converted amounts (≈) assume the structure as drawn.
What was measured:
Staphylococcus aureus [1] = experiment: Antibacterial activity against Staphylococcus aureus ATCC 6538P by microdilution method; format: functional, organism-based
[2] = Displacement of [14C]benzylpenicillin from PBP1B in Escherichia coli NIHJ
Pseudomonas aeruginosa [3] = experiment: Antibacterial activity against Pseudomonas aeruginosa ATCC 15692 by microdilution method; format: functional, organism-based
Staphylococcus aureus [4] = experiment: Ratio of MIC for Staphylococcus aureus SRR2a to MIC for Staphylococcus aureus ATCC 6538P; format: functional
Staphylococcus aureus [5] = experiment: Ratio of MIC for Staphylococcus aureus SIR2a selected at 2 times MIC of imipenem to MIC for Staphylococcus aureus ATCC 6538P; format: functional
[6] = Displacement of [14C]benzylpenicillin from PBP1 in Staphylococcus aureus ATCC 6538P
Escherichia coli [7] = experiment: Ratio of MIC for Escherichia coli EIR4a to MIC for Escherichia coli NIHJ; format: functional
[8] = Displacement of [14C]benzylpenicillin from PBP4 in Pseudomonas aeruginosa ATCC 15692
[9] = Displacement of [14C]benzylpenicillin from PBP6 Escherichia coli NIHJ
Staphylococcus aureus [10] = experiment: Antibacterial activity against Staphylococcus aureus SIR2a selected at 2 times MIC of imipenem by microdilution method; format: functional
Escherichia coli [11] = experiment: Antibacterial activity against Escherichia coli NIHJ by microdilution method; format: functional, organism-based
Escherichia coli [12] = experiment: Antibacterial activity against Escherichia coli ERR2a selected at 2 times MIC of tomopenem by microdilution method; format: functional
Escherichia coli [13] = experiment: Ratio of MIC for Escherichia coli EMR2a to MIC for Escherichia coli NIHJ; format: functional
Escherichia coli [14] = experiment: Antibacterial activity against Escherichia coli EIR4b selected at 4 times MIC of imipenem by microdilution method; format: functional
Escherichia coli [15] = experiment: Antibacterial activity against Escherichia coli EIR8a selected at 8 times MIC of imipenem by microdilution method; format: functional
Pseudomonas aeruginosa [16] = experiment: Ratio of MIC for Pseudomonas aeruginosa PMR2a to MIC for Pseudomonas aeruginosa ATCC 15692; format: functional
Escherichia coli [17] = experiment: Antibacterial activity against Escherichia coli ERR4a selected at 4 times MIC of tomopenem by microdilution method; format: functional
Pseudomonas aeruginosa [18] = experiment: Antibacterial activity against Pseudomonas aeruginosa PIR2a selected at 2 times MIC of imipenem by microdilution method; format: functional
Escherichia coli [19] = experiment: Ratio of MIC for Escherichia coli EIR2b to MIC for Escherichia coli NIHJ; format: functional
Escherichia coli [20] = experiment: Ratio of MIC for Escherichia coli ERR4a to MIC for Escherichia coli NIHJ; format: functional
Pseudomonas aeruginosa [21] = experiment: Ratio of MIC for Pseudomonas aeruginosa PRR4a to MIC for Pseudomonas aeruginosa ATCC 15692; format: functional
[22] = Displacement of [14C]benzylpenicillin from PBP3 in Pseudomonas aeruginosa ATCC 15692
[23] = Displacement of [14C]benzylpenicillin from PBP5 in Escherichia coli NIHJ
Escherichia coli [24] = experiment: Antibacterial activity against Escherichia coli EMR2a selected at 2 times MIC of meropenem by microdilution method; format: functional
Pseudomonas aeruginosa [25] = experiment: Antibacterial activity against Pseudomonas aeruginosa PMR2a selected at 2 times MIC of meropenem by microdilution method; format: functional
Pseudomonas aeruginosa [26] = experiment: Ratio of MIC for Pseudomonas aeruginosa PIR2a to MIC for Pseudomonas aeruginosa ATCC 15692; format: functional
Escherichia coli [27] = experiment: Ratio of MIC for Escherichia coli EIR4b to MIC for Escherichia coli NIHJ; format: functional
Escherichia coli [28] = experiment: Antibacterial activity against Escherichia coli ERR2b selected at 2 times MIC of tomopenem by microdilution method; format: functional
Escherichia coli [29] = experiment: Antibacterial activity against Escherichia coli ERR8a selected at 8 times MIC of tomopenem by microdilution method; format: functional
Staphylococcus aureus [30] = experiment: Antibacterial activity against Staphylococcus aureus SRR2a selected at 2 times MIC of tomopenem by microdilution method; format: functional
Escherichia coli [31] = experiment: Antibacterial activity against Escherichia coli EIR2b selected at 2 times MIC of imipenem by microdilution method; format: functional
[32] = Displacement of [14C]benzylpenicillin from PBP3 in Staphylococcus aureus ATCC 6538P
Escherichia coli [33] = experiment: Ratio of MIC for Escherichia coli EIR2a to MIC for Escherichia coli NIHJ; format: functional
Staphylococcus aureus [34] = experiment: Ratio of MIC for Staphylococcus aureus SMR2a to MIC for Staphylococcus aureus ATCC 6538P; format: functional
Escherichia coli [35] = experiment: Ratio of MIC for Escherichia coli EIR8a to MIC for Escherichia coli NIHJ; format: functional
[36] = Displacement of [14C]benzylpenicillin from PBP3 in Escherichia coli NIHJ
Staphylococcus aureus [37] = experiment: Ratio of MIC for Staphylococcus aureus SMR4a to MIC for Staphylococcus aureus ATCC 6538P; format: functional
[38] = Displacement of [14C]benzylpenicillin from PBP 5 in Pseudomonas aeruginosa ATCC 15692
[39] = Displacement of [14C]benzylpenicillin from PBP1A in Escherichia coli NIHJ
[40] = Displacement of [14C]benzylpenicillin from PBP2 Staphylococcus aureus ATCC 6538P
[41] = Displacement of [14C]benzylpenicillin from PBP4 in Escherichia coli NIHJ
Escherichia coli [42] = experiment: Ratio of MIC for Escherichia coli ERR2a selected to MIC for Escherichia coli NIHJ; format: functional
[43] = Displacement of [14C]benzylpenicillin from PBP2 in Pseudomonas aeruginosa ATCC 15692
Escherichia coli [44] = experiment: Ratio of MIC for Escherichia coli ERR8a to MIC for Escherichia coli NIHJ; format: functional
[45] = Displacement of [14C]benzylpenicillin from PBP1A in Pseudomonas aeruginosa ATCC 15692
Escherichia coli [46] = experiment: Antibacterial activity against Escherichia coli EIR4a selected at 4 times MIC of imipenem by microdilution method; format: functional
[47] = Displacement of [14C]benzylpenicillin from PBP4 in Staphylococcus aureus ATCC 6538P
Pseudomonas aeruginosa [48] = experiment: Antibacterial activity against Pseudomonas aeruginosa PRR4a selected at 4 times MIC of tomopenem by microdilution method; format: functional
[49] = Displacement of [14C]benzylpenicillin from PBP2 in Escherichia coli NIHJ
Escherichia coli [50] = experiment: Antibacterial activity against Escherichia coli EIR2a selected at 2 times MIC of imipenem by microdilution method; format: functional
Escherichia coli [51] = experiment: Ratio of MIC for Escherichia coli ERR2b to MIC for Escherichia coli NIHJ; format: functional
Staphylococcus aureus [52] = experiment: Antibacterial activity against Staphylococcus aureus SMR2a selected at 2 times MIC of meropenem by microdilution method; format: functional
Staphylococcus aureus [53] = experiment: Antibacterial activity against Staphylococcus aureus SMR4a […] MIC of meropenem by microdilution method; format: functional
[54] = Displacement of [14C]benzylpenicillin from PBP1B in Pseudomonas aeruginosa ATCC 15692
[55] = Displacement of [14C]benzylpenicillin from PBP 6 in Pseudomonas aeruginosa ATCC 15692

## C[C@@H](O)[C@H]1C(=O)N2C(C(=O)O)=C(SCCNC=N)C[C@H]12 [IMIPENEM ANHYDROUS]
Staphylococcus aureus [1]
  IC50: 0.008 µg/mL (≈ 0.0267 µM)
  MBC: 0.008 µg/mL (≈ 0.0267 µM)
  MIC: 0.008 µg/mL (≈ 0.0267 µM)
[2]
  IC50: 1.1 µg/mL (≈ 3.67 µM)
Pseudomonas aeruginosa [3]
  MBC: 2 µg/mL (≈ 6.68 µM)
  MIC: 1 µg/mL (≈ 3.34 µM)
Staphylococcus aureus [4]
  Ratio MIC: 4
Staphylococcus aureus [5]
  Ratio MIC: 4
[6]
  IC50: 0.024 µg/mL (≈ 0.0802 µM)
Escherichia coli [7]
  Ratio MIC: 4
[8]
  IC50: 0.0032 µg/mL (≈ 0.0107 µM)
[9]
  IC50: 1 µg/mL (≈ 3.34 µM)
Staphylococcus aureus [10]
  MIC: 0.03 µg/mL
Escherichia coli [11]
  MBC: 0.25 µg/mL (≈ 0.835 µM)
  MIC: 0.25 µg/mL (≈ 0.835 µM)
Escherichia coli [12]
  MIC: 1 µg/mL
Escherichia coli [13]
  Ratio MIC: 4
Escherichia coli [14]
  MIC: 1 µg/mL
Escherichia coli [15]
  MIC: 0.5 µg/mL
Pseudomonas aeruginosa [16]
  Ratio MIC: 16
Escherichia coli [17]
  MIC: 1 µg/mL
Pseudomonas aeruginosa [18]
  MIC: 16 µg/mL
Escherichia coli [19]
  Ratio MIC: 2
Escherichia coli [20]
  Ratio MIC: 4
Pseudomonas aeruginosa [21]
  Ratio MIC: 8
[22]
  IC50: 0.089 µg/mL (≈ 0.297 µM)
[23]
  IC50: 0.34 µg/mL (≈ 1.14 µM)
Escherichia coli [24]
  MIC: 1 µg/mL
Pseudomonas aeruginosa [25]
  MIC: 16 µg/mL
Pseudomonas aeruginosa [26]
  Ratio MIC: 16
Escherichia coli [27]
  Ratio MIC: 4
Escherichia coli [28]
  MIC: 1 µg/mL
Escherichia coli [29]
  MIC: 0.5 µg/mL
Staphylococcus aureus [30]
  MIC: 0.03 µg/mL
Escherichia coli [31]
  MIC: 0.5 µg/mL
[32]
  IC50: 0.049 µg/mL (≈ 0.164 µM)
Escherichia coli [33]
  Ratio MIC: 4
Staphylococcus aureus [34]
  Ratio MIC: 4
Escherichia coli [35]
  Ratio MIC: 2
[36]
  IC50: 19 µg/mL (≈ 63.5 µM)
Staphylococcus aureus [37]
  ratio: 4
[38]
  IC50: 0.19 µg/mL (≈ 0.635 µM)
[39]
  IC50: 0.22 µg/mL (≈ 0.735 µM)
[40]
  IC50: 0.047 µg/mL (≈ 0.157 µM)
[41]
  IC50: 0.44 µg/mL (≈ 1.47 µM)
Escherichia coli [42]
  Ratio MIC: 4
[43]
  IC50: 0.066 µg/mL (≈ 0.22 µM)
Escherichia coli [44]
  Ratio MIC: 2
[45]
  IC50: 0.057 µg/mL (≈ 0.19 µM)
Escherichia coli [46]
  MIC: 1 µg/mL
[47]
  IC50: 0.0078 µg/mL (≈ 0.0261 µM)
Pseudomonas aeruginosa [48]
  MIC: 8 µg/mL
[49]
  IC50: 0.045 µg/mL (≈ 0.15 µM)
Escherichia coli [50]
  MIC: 1 µg/mL
Escherichia coli [51]
  Ratio MIC: 4
Staphylococcus aureus [52]
  MIC: 0.03 µg/mL
Staphylococcus aureus [53]
  MIC: 0.03 µg/mL
[54]
  IC50: 0.078 µg/mL (≈ 0.261 µM)
[55]
  IC50: 0.19 µg/mL (≈ 0.635 µM)
